Experimental findings from patent US20200148803A1, “POLYMERIZABLE MULTIFUNCTIONAL ANTIMICROBIAL QUATERNARY AMMONIUM MONOMERS, METHODS OF SYNTHESIS, AND USES THEREOF” (ADA Foundation, priority 2018, published 2020) are described below.

In series [1] the test system is human liver cells (HepG2-AD13). The experiment in a line: Direct contact cytotoxicity, Luciferase Assay System, HepG2-AD13 cells. The format is cell-based. The following applies: 6 h. How it is done:
Immortalized human liver cells (hereafter HepG2-AD13) were obtained from collaborators at Aichi Gakuin University, Japan. The cells were maintained (37° C., 5% CO2) in Dulbecco's Modified Eagle's medium supplemented with 10% fetal bovine serum. For experiments, cells were obtained from a subconfluent stock culture.
Direct contact cytotoxicity testing was conducted by exposing cells to two-fold serial dilutions of AMmis2 (Table 8) to approximate the maximum possible exposure, assuming 7% mass fraction in the composite with a maximum of 2% leaching. To account for multiplicity and variable size of restorations, a four-fold greater dilution was also included in the testing. After 6 h, cells were assessed for cell viability using a Luciferase Assay System (Promega Corp., Madison, Wis.). Negative controls were without the AMmis2 and/or cells. Mean+standard error was obtained from five independent replicates tested in quadruplicate.

Series [2] is described as follows: Sessile drop water contact angle (CA) on resin pellets. It is filed as physicochemical. The following applies: for CA / reduction of CA relative to UPE resin control: 10 mass % monomer in UPE resin. As to the method:
(§1) Experimental resin (UPE) was formulated from the commercially available monomers urethane dimethacrylate (UDMA, 50.91% w/w), polyethylene glycol extended urethane dimethacrylate (PEG-U, 18.18% w/w), and ethyl 2-(hydroxymethyl)acrylate (EHMA, 30.91% w/w). A conventional visible light initiator system comprised of camphorquinone (0.2% w/w) and ethyl-4-N,N-dimethylamino benzoate (4EDMAB, 0.8% w/w) was utilized. […] Copolymer specimens (beams) were prepared by depositing UPE (UPE resin control) and AM-UPE resins into glass molds (2 mm×2 mm×25 mm) and photopolymerizing them with a dental curing light (Triad 2000, Dentsply, Charlotte, N.C., USA) for 2 minutes from two sides. Copolymer specimens (pellets) were prepared by depositing UPE and AM-UPE resins into a stainless-steel mold (1 mm×16 mm), sandwiched between two sheets of Mylar film and two glass slides and photopolymerized in the same manner as the beam samples. Degree of vinyl conversion (DVC) of UPE and AM-UPE resins was determined utilizing beam samples by collecting the near infra-red (NIR) spectra (Nexus 670, ThermoFisher, Madison, Wis., USA) before and 24 h after polymerization and calculating the reduction in absorption band at 6165 cm^−1 corresponding to the vinyl (C═C—H) overtone signal. By maintaining a constant specimen thickness, a need for an invariant internal standard was eliminated. The DVC was calculated as: […]
(§2) where Area(polymer) and Area(monomer) correspond to the areas under 6165 cm^−1 peaks after and before the polymerization, respectively. After DVC analysis, flexural strength (FS) and elastic modulus (E) of beam specimen were determined employing the Universal Testing Machine (Instron 5500R, Instron Corp., Canton, Mass., USA). The load was applied (at cross-head speed of 1 mm/min) to the center of a specimen positioned on a test device with supports 20 mm apart. The FS and E of the specimens (three replicates/experimental group) was calculated as instructed in the ISO4049:2009 document. Changes in hydrophilicity/hydrophobicity of UPE resins due to the introduction of AM monomers were assessed on pellet specimen by sessile drop contact angle (CA) measurements (drop shape analyzer DSA100, Krüss GmbH, Hamburg, Germany). Following the deposition of 4 μL water droplets on the resin pellets, the pellets were imaged after 1 min resting time with a camera at the points of intersection (three-phase contact points) between the drop contour and the projection of the surface (baseline). The CA water values were calculated employing the Krüss Advance software. At least four repetitive measurements were performed in each group. Analysis of variance (ANOVA) and Newman-Keuls multiple paired comparisons (at 95% confidence level) were used to analyze the experimental data as a function of resin composition and establish a statistical significance of differences between the experimental groups (WINKS 7.0.9, TexaSoft, Cedar Hills, Tex., USA).

Series [3] concerns mouse subcutaneous connective tissue fibroblasts (NCTC clone 929, CCL1). Nature of the series: Direct contact cytotoxicity, LIVE/DEAD viability, CCL1 cells. The format is cell-based. As to conditions: for effect of monomer concentration on CCL1 cell viability: two-fold serial dilutions, 24 h and 72 h.
Series [4] deals with human gingival fibroblasts (HGF). The experiment in a line: Cellular metabolic activity (CellTiter AQueous One Solution Reagent), HGF cells. The format is cell-based. The following applies: two-fold serial dilutions, 24 h and 72 h. How it is done:
(§3) Immortalized human gingival fibroblasts (HGF) were purchased from Applied Biological Materials, Inc. (Richmond, British Columbia, Canada). […] For experiments, cells were obtained from a subconfluent stock culture.
(§4) Direct contact cytotoxicity testing was conducted as previously described^7, 8. Briefly, cells were exposed to two-fold serial dilutions of AMadh series monomers or AMsil series monomers to approximate the maximum possible exposure, (Table 9). Table 9 illustrates biocompatibility testing using maximum possible monomer exposure (mmol/L), assuming 7% mass fraction in the restorative with a maximum of 2% leaching. To account for multiplicity and variable size of restorations, a two- and four-fold greater dilution was also included in the testing. After 24 and 72 h, cells were assessed for cell viability using the LIVE/DEAD® Viability/Cytotoxicity kit (Life Technologies, Corp., Grand Island, N.Y.). Cellular metabolic activity was subsequently assessed using the CellTiter® AQueous One Solution Reagent (Promega, Corp., Madison, Wis.). Negative controls were without the novel monomer and/or cells. Mean+standard error was obtained from five independent replicates tested in triplicate.

Series [5] is described as follows: Degree of vinyl conversion (DVC) by near infra-red spectra of copolymer beams. The format is physicochemical. As to the method:
as §1, §2

The subject of the next series is CCL1 cells. The experiment in a line: Cellular metabolic activity (CellTiter AQueous One Solution Reagent), CCL1 cells. As to conditions: two-fold serial dilutions, 24 h and 72 h. The format is cell-based.
In series [6] the test system is human gingival fibroblasts (HGF). Nature of the series: Direct contact cytotoxicity, LIVE/DEAD viability, HGF cells. The following applies: for effect of monomer concentration on HGF cell viability: two-fold serial dilutions, 24 h and 72 h. It is filed as cell-based. As to the method: as §3, §4

With “2-(methacryloyloxy)-N,N,N-trimethylethan-1-aminium methacrylate [AMmis2]”, the “effect on HepG2-AD13 cells compared to negative control” value in series [1] (concentrations ≤1.812 mmol/L) is “did not exert a significant effect”. Further, in series [1] (concentrations ≥3.623 mmol/L), the “relative luminescence units, fold greater than at all lower concentrations” value was “at least 1.5 fold”.
In series [2], `C=C(C)C(=O)OCC[N+](C)(C)CCC[Si](OC)(OC)OC.[I-]` [AMsil1, N-(2-(methacryloyloxy)ethyl)-N,N-dimethyl-3-(trimethoxysilyl)propan-1-aminium iodide] registered a CA of 46.9±5.9 °. For the same molecule, the “reduction of CA relative to UPE resin control” value in series [2] is 23%. For the same molecule, the “effect on hydrophobic-hydrophilic properties of the copolymer” value in series [2] (10 mass percent in UPE resin) is given as “a shift towards the lower CA values”; in series [2] (20 mass percent in UPE resin), “maintained the hydrophobic-hydrophilic balance”. Moreover, the “dead CCL1 cells” value is recorded as 128.0 ± 27.1 % Control in series [3] (0.07 mmol/L, 24 h); 134.0 ± 36.5 % Control in series [3] (0.07 mmol/L, 72 h); 85.1 ± 11.2 % Control in series [3] (0.13 mmol/L, 24 h); 140.3 ± 32.7 % Control in series [3] (0.13 mmol/L, 72 h); 96.8 ± 15.5 % Control in series [3] (0.26 mmol/L, 24 h); 117.4 ± 27.1 % Control in series [3] (0.52 mmol/L, 24 h). The “dead CCL1 cells” value amounted to 124.6 ± 22.9 % Control in series [3] (0.52 mmol/L, 72 h); 96.0 ± 16.2 % Control in series [3] (1.04 mmol/L, 24 h); 128.8 ± 20.2 % Control in series [3] (1.04 mmol/L, 72 h); 86.1 ± 11.7 % Control in series [3] (2.09 mmol/L, 24 h); 147.6 ± 38.5 % Control in series [3] (2.09 mmol/L, 72 h); 85.8 ± 13.1 % Control in series [3] (4.17 mmol/L, 24 h). In addition, the “dead CCL1 cells” value was 91.6 ± 13.7 % Control in series [3] (4.17 mmol/L, 72 h); 93.0 ± 15.4 % Control in series [3] (8.34 mmol/L, 24 h); 106.8 ± 7.4 % Control in series [3] (8.34 mmol/L, 72 h). The “live CCL1 cells” value in series [3] (0.07 mmol/L, 24 h) turned out to be 156.8 ± 21.4 % Control; in series [3] (0.07 mmol/L, 72 h) it was 122.5 ± 5.6 % Control; in series [3] (0.13 mmol/L, 24 h) it was 145.1 ± 14.8 % Control; in series [3] (0.13 mmol/L, 72 h), 122.1 ± 8.5 % Control; in series [3] (0.26 mmol/L, 24 h), 154.5 ± 25.0 % Control; in series [3] (0.26 mmol/L, 72 h) it was 108.9 ± 18.6 % Control. Further, the “live CCL1 cells” value in series [3] (0.52 mmol/L, 24 h) is reported as 147.3 ± 20.3 % Control; in series [3] (0.52 mmol/L, 72 h), 122.9 ± 11.1 % Control; in series [3] (1.04 mmol/L, 24 h) it was 157.9 ± 18.8 % Control; in series [3] (1.04 mmol/L, 72 h), 142.0 ± 6.5 % Control; in series [3] (2.09 mmol/L, 24 h) it was 152.5 ± 20.3 % Control; in series [3] (2.09 mmol/L, 72 h), 136.0 ± 7.2 % Control. Besides, the “live CCL1 cells” value in series [3] (4.17 mmol/L, 24 h) is 161.3 ± 15.2 % Control; in series [3] (4.17 mmol/L, 72 h), 132.1 ± 6.7 % Control; in series [3] (8.34 mmol/L, 24 h), 149.6 ± 37.4 % Control; in series [3] (8.34 mmol/L, 72 h), 110.8 ± 12.3 % Control. For the same molecule, the “exposure time reduced the number of live CCL1 cells, fold difference of mean” value in series [3] (24 h vs 72 h) is listed as 1.2 fold. Further, the “effect of monomer concentration on CCL1 cell viability” value in series [3] is on record as “did not exert a statistical effect”. In addition, in series [4], the “effect on metabolic activity of HGF cells” value was “did not statistically affect the metabolic activity”. Besides, the entries for the “reduction of DVC relative to UPE resin control” value in series [5] (10 mass percent in UPE resin) and in series [5] (20 mass percent in UPE resin) were “approximately 27%” and around 17%, respectively. Besides, the “effect of monomer concentration on CCL1 metabolic activity” value with CCL1 cells is “did not affect”. The “exposure time reduced HGF viability, difference of means” value in series [6] (24 h vs 72 h, independent of concentration) came to 19.73. In addition, the “number of live HGFs” value in series [6] (lower concentrations (≤0.13 mmol/L)) is given as “decreased”. In addition, the “effect of monomer concentration on HGF cell viability” value in series [6] is “exerted a main effect”.
Consider `C=C(C)C(=O)OCC[N+](C)(C)CCCCCCCCCCC[Si](OC)(OC)OC.[Br-]` [AMsil2, N-(2-(methacryloyloxy)ethyl)-N,N-dimethyl-11-(trimethoxysilyl)undecan-1-aminium bromide], for which the CA in series [2] amounted to 37.4±9.2 °. The “reduction of CA relative to UPE resin control” value in series [2] is on record as 38%. Also, the entries for the “effect on hydrophobic-hydrophilic properties of the copolymer” value in series [2] (10 mass percent in UPE resin) and in series [2] (20 mass percent in UPE resin) were “a shift towards the lower CA values” and “maintained the hydrophobic-hydrophilic balance”, respectively. In series [3], the “effect of monomer concentration on CCL1 cell viability” value is “exerted a main effect”. The “percentage of live CCL1 cells, fold lower compared to concentrations ≤0.91 mmol/L” value in series [3] (≥1.82 mmol/L, 72 h exposure) fell in the range of 3 to 4 fold. In addition, in series [3] (≥3.64 mmol/L, 24 h exposure), the “live CCL1 cells compared to lower concentrations” value is “lower”. Also, in series [4], the “effect on metabolic activity of HGF cells” value is listed as “exhibited an effect”. Moreover, the “DVC compared to UPE resin control” value in series [5] (10 mass percent in UPE resin) was “did not change the copolymer DVC”. In addition, the “reduction of DVC relative to UPE resin control” value in series [5] (20 mass percent in UPE resin) came out at 12.9%. Also, the “effect of monomer concentration on CCL1 metabolic activity” value in the series on CCL1 cells is recorded as “exerted an effect”. Also, the “effect of exposure time on HGF live cells, difference of means” value in series [6] (24 h vs 72 h, regardless of concentration) is recorded as around 23%. For the same molecule, the “effect of monomer concentration on HGF cell viability” value in series [6] was “exhibited a concentration effect”. Besides, the “reduction of number of live HGFs compared to the control group” value in series [6] (≥1.82 mmol/L) was “more than 3 fold”.
